Data reported in patent US20100249698A1, “CONTROLLED EXOTHERM OF CYANOACRYLATE FORMULATIONS” (priority 2009, published 2010).

Columns and labels:
[1] = Setting time and exotherm (setting temperature) of cyanoacrylate film polymerized via initiator-impregnated porous applicator tip; assay type: physicochemical; conditions: Quadrol as initiator in porous tip with 2-OCA formulations A and B
[2] = potentiometric titration at 25° C. in 0.15 M sodium chloride solution; cited from earlier work

CC(O)CN(CCN(CC(C)O)CC(C)O)CC(C)O (stereo not drawn) [Quadrol, N,N,N′,N′-tetrakis(2-hydroxypropyl)ethylenediamine]
cure time [1]: clinically acceptable timeframe
pKa1 (tertiary amine group) [2]: 8.99±0.04
pKa2 (quaternary ammonium form) [2]: 4.30±0.04
